Common to all, as to assay: NCI-60 cell line screen, 48 h
The subject of test [1] is HCT-15.
Test [2] relates to HOP-92.
The test system of test [3] is M14.
Test [4] deals with A549.
For test [5], the system named is MDA-MB-435.
Test [6] has as its system SF-295.
The subject of test [7] is MCF7.
For test [8], the system named is EKVX.
Test [9] deals with HCT-116.
Test [10] relates to OVCAR-5.
Test [11] concerns SW-620.
In test [12] the test system is SN12C.
Test [13] deals with UACC-62.
Test [14] deals with U-251.
Test [15] deals with PC-3.
The test system of test [16] is NCI-H460.
Test [17] relates to SR.
Test [18] concerns CCRF-CEM.
For test [19], the system named is NCI-H522.
Test [20] has as its system MDA-N.

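Protocol summary: plate cells (96-well), add compound at 5 concentrations, incubate 48 h, interpolate endpoints linearly. GI50: concentration for 50% inhibition of growth.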 Active and inactive are the calls of the source. Cut-off read from the data, not from the text of the source: active = GI50 up to about 1.1 µM and inactive = higher. Where a SMILES comes first, the peptide text is derived from it. The star is where a group is joined. Boc = CC(C)(C)OC(=O)*

As to `CC1=CC(=O)/C(=C/Nc2nc(-c3cccc([N+](=O)[O-])c3)cs2)C(=O)O1`, the GI50 is 23 µM in [1]; > 100 µM (inactive) in test [2]; 64.1 µM (inactive) in [3]; > 100 µM (inactive) in [4]; 75.2 µM (inactive) in [5]; > 100 µM (inactive) in [6]. The GI50 in test [7] is 41.6 µM (inactive); in [8], 39.4 µM (inactive); in [9] it was 37.7 µM (inactive); in test [10], > 100 µM (inactive); in test [11], 43.4 µM (inactive); in test [12], 66.5 µM (inactive). Further, the GI50 in test [13] is 32.5 µM (inactive); in test [14], 63.1 µM (inactive); in [15], > 100 µM (inactive); in test [16], > 100 µM (inactive).
As to `O/N=C(\C=N\O)c1ccc2c(c1)Sc1ccccc1O2`, the GI50 in [1] was 25.9 µM; in test [2], 15.6 µM (inactive); in test [3], 19.9 µM (inactive); in [4] it was 30.8 µM (inactive); in test [5], 12.1 µM (inactive); in test [6], 22.3 µM (inactive). Also, the GI50 was 19.7 µM (inactive) in [17]; 16.9 µM (inactive) in [7]; 16.5 µM (inactive) in test [8]; 18 µM (inactive) in [9]; 2.39 µM (inactive) in test [18]; 31.7 µM (inactive) in [10]. Besides, the GI50 is 22.9 µM (inactive) in test [11]; 17.5 µM (inactive) in test [12]; 18.1 µM (inactive) in test [13]; 26.8 µM (inactive) in test [14]; 14.8 µM (inactive) in [15]; 23.7 µM (inactive) in test [16]. For the same molecule, the GI50 in test [19] is 3.53 µM (inactive).
With `COC(=O)c1c2n(c3ccccc13)C[C@H]1OC(C)(C)O[C@@H]21`, the GI50 in [1] was above 100 µM; in test [2], > 100 µM (inactive); in test [3], > 100 µM (inactive); in test [4], > 100 µM (inactive); in test [5], > 100 µM (inactive); in [6], > 100 µM (inactive). Besides, the GI50 in test [17], in test [7], in [8], in test [9], in test [18] and in [10] was > 100 µM (inactive) in each case. The GI50 in [11], in test [12], in test [13], in [14], in test [15] and in test [16] was > 100 µM (inactive) in each case. Moreover, in [19], the GI50 was > 100 µM (inactive).
Consider `Nc1nc(-c2ccccc2)nc2c1[n+]([O-])c1ccccc1[n+]2[O-]`, for which the GI50 in test [1] was above 100 µM; in test [3], > 100 µM (inactive); in [4], > 100 µM (inactive); in test [5] it was > 100 µM (inactive); in test [6], > 100 µM (inactive); in test [7], > 100 µM (inactive). Also, the GI50 in test [8], in test [9], in test [18], in test [10], in [11] and in [12] was > 100 µM (inactive) throughout. Also, the GI50 in test [13], in test [14], in test [15], in test [16] and in test [19] was > 100 µM (inactive) in each case.
On to `CCOC(=O)C(CC(C)C)NC(=O)CSc1nnc(COc2ccc(Cl)cc2)n1-c1ccccc1` (stereo not drawn), for which the GI50 was 18.5 µM in test [1]; 18.6 µM (inactive) in test [2]; 18 µM (inactive) in [3]; 21.2 µM (inactive) in [4]; 16.9 µM (inactive) in test [5]; 2.3 µM (inactive) in test [17]. Moreover, the GI50 in test [7] is 18.5 µM (inactive); in test [9] it was 14.8 µM (inactive); in test [18], 5.08 µM (inactive); in [10], 19.9 µM (inactive); in test [11], 20 µM (inactive); in [12], 15.6 µM (inactive). The GI50 is 16.4 µM (inactive) in test [13], 19.3 µM (inactive) in test [14], 17.1 µM (inactive) in test [15] and 14.9 µM (inactive) in test [16].
For the molecule `CC(NC(=O)C(NC(=O)OC(C)(C)C)C(C)C)C(=O)NCC(=O)O` (stereo not drawn) (Boc-Val-Ala-Gly-OH; configuration not given here), the GI50 was above 100 µM in test [1]; > 100 µM (inactive) in [2]; > 100 µM (inactive) in [3]; > 100 µM (inactive) in [4]; > 100 µM (inactive) in [5]; > 100 µM (inactive) in test [6]. In addition, the GI50 in [17], in test [8], in [9], in test [10], in test [11] and in [12] was > 100 µM (inactive) each time. Moreover, the GI50 in [13], in test [14], in [15], in test [16], in test [20] and in test [19] was > 100 µM (inactive) each time.
For `Cn1ccc(C(=O)NCCN(CCNC(=O)c2ccn(C)c(=O)c2O)CCNC(=O)c2cccc(=O)n2O)c(O)c1=O`, the GI50 in [1] is above 100 µM; in test [2], > 100 µM (inactive); in [3] it was > 100 µM (inactive); in test [4], > 100 µM (inactive); in [5], > 100 µM (inactive); in [6], > 100 µM (inactive). In addition, the GI50 in [17], in [7], in test [9], in test [18], in test [10] and in [11] was > 100 µM (inactive) throughout. The GI50 in test [12], in [13], in [14], in [15], in test [16] and in test [19] was > 100 µM (inactive) in each case.
For the molecule `CCC(C)(O)c1cn(-c2cccc(S(=O)(=O)O)c2)nn1` (stereo not drawn), the GI50 in [1] was above 100 µM; in [2], > 100 µM (inactive); in test [3], > 100 µM (inactive); in test [4], > 100 µM (inactive); in test [6], > 100 µM (inactive); in test [17] it was > 100 µM (inactive). Also, the GI50 in test [8], in test [9], in [18], in [10], in [11] and in test [12] was > 100 µM (inactive) each time. Moreover, the GI50 in [13], in test [14], in test [16] and in test [19] was > 100 µM (inactive) in each case.
On to `CN(C)[C@@H]1C(O)=C(C(=O)NCNCCCC(=O)O)C(=O)[C@@]2(O)C(O)=C3C(=O)c4c(O)cccc4[C@@](C)(O)[C@H]3C[C@@H]12`, for which the GI50 in test [1] was above 100 µM; in test [2] it was > 100 µM (inactive); in [3] it was > 100 µM (inactive); in [4], > 100 µM (inactive); in test [6], > 100 µM (inactive); in test [17], > 100 µM (inactive). Besides, the GI50 in test [8], in [9], in [18], in [10], in [11] and in [12] was > 100 µM (inactive) each time. In addition, the GI50 in [13], in test [14], in test [16] and in [19] was > 100 µM (inactive) each time.
In the case of `O=C1OC(c2cccc(C(F)(F)F)c2)c2ccc3ccccc3c21` (stereo not drawn), the GI50 was 8.22 µM in test [1]; 91.8 µM (inactive) in [2]; > 10 µM (inactive) in [3]; 36.8 µM (inactive) in test [4]; 12.2 µM (inactive) in test [6]; > 10 µM (inactive) in test [17]. For the same molecule, the GI50 was > 10 µM (inactive) in test [8]; > 10 µM (inactive) in [9]; 9.06 µM (inactive) in [18]; > 10 µM (inactive) in test [10]; > 10 µM (inactive) in test [11]; > 10 µM (inactive) in test [12]. For the same molecule, the GI50 was 7.41 µM (inactive) in [13], 7.59 µM (inactive) in [14], > 10 µM (inactive) in [16] and > 10 µM (inactive) in [19].
For the molecule `O=C(Nc1cc(Cl)c(Cl)cc1Cl)C(=O)C1C=CCS1(=O)=O` (stereo not drawn), the GI50 is above 100 µM in [1]; 26.8 µM (inactive) in test [2]; > 100 µM (inactive) in test [3]; > 100 µM (inactive) in test [4]; > 100 µM (inactive) in test [6]; > 100 µM (inactive) in [17]. For the same molecule, the GI50 was > 100 µM (inactive) in [8]; > 100 µM (inactive) in [9]; > 100 µM (inactive) in test [18]; > 100 µM (inactive) in test [10]; > 100 µM (inactive) in [11]; 93.5 µM (inactive) in test [12]. Besides, the GI50 in [13], in test [14], in test [16] and in [19] was > 100 µM (inactive) each time.
For the molecule `COc1ccc(-c2nc(N)nc(-c3cc(C)ccc3O)c2Cl)cc1`, the GI50 in test [1] was above 100 µM; in test [2] it was 55.1 µM (inactive); in [3], 84.1 µM (inactive); in test [4] it was 64.1 µM (inactive); in test [6], 60.1 µM (inactive); in [17] it was > 100 µM (inactive). The GI50 in test [8] is 20.3 µM (inactive); in test [9] it was 39.5 µM (inactive); in test [18], > 100 µM (inactive); in test [10] it was > 100 µM (inactive); in [11], > 100 µM (inactive); in test [12], 76.7 µM (inactive). Further, the GI50 was 29 µM (inactive) in test [13], 39.6 µM (inactive) in test [14], 38.3 µM (inactive) in [16] and 26.2 µM (inactive) in [19].

(Values after ChEMBL document CHEMBL1201862, “PubChem BioAssay data set” (2004).)
